Data on 9 compounds can be found in paper PMC8608967, “KDS2010, a Newly Developed Reversible MAO-B Inhibitor, as an Effective Therapeutic Candidate for Parkinson’s Disease” (Neurotherapeutics, 2021).

Data set [1] addresses T1, human recombinant MAO-B (hMAO-B) (Homo sapiens, UniProt P27338).
T1 construct: purchased Sigma Aldrich
T1 sequence (P27338 1-520): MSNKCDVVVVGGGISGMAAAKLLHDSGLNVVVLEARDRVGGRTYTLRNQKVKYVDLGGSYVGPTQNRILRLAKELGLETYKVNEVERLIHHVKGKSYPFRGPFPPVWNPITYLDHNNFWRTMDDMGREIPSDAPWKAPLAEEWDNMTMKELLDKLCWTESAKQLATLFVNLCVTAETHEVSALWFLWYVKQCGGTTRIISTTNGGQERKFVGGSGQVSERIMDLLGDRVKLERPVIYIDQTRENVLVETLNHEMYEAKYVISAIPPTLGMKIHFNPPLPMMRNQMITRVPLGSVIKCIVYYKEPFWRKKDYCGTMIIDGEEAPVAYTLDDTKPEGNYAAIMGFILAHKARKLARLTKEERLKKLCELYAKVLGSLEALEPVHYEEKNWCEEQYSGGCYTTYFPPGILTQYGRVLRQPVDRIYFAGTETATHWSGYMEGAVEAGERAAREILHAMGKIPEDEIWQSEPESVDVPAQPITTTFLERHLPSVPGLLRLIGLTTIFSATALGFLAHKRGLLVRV
The settings on record: ref Park, JH. et al. Science Advances. 5(3), eaav0136 (2019), cited from earlier work; for IC50: hMAO-B, read-out: Inhibition (IC50) MAO-B; for SI (selectivity index), IC50(MAO-A)/IC50(MAO-B): selectivity for MAO-B isoform.

Data set [2] deals with T2, human recombinant MAO-A (hMAO-A) (Homo sapiens, UniProt P21397).
T2 construct: purchased Sigma Aldrich
T2 sequence (P21397 1-527): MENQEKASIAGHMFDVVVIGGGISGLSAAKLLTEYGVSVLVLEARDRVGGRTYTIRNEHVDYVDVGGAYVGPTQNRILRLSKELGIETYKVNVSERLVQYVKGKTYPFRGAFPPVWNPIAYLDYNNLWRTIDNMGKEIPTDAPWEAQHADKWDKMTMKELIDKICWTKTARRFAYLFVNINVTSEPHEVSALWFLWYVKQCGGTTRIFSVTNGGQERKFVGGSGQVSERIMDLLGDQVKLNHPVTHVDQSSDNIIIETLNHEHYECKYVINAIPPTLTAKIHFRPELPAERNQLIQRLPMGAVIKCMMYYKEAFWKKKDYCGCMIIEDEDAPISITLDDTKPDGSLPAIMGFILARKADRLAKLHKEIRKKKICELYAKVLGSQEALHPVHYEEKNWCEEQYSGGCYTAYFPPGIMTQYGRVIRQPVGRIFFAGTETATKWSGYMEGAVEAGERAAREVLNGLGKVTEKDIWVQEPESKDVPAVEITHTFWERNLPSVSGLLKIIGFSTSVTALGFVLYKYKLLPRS
The settings on record: ref Park, JH. et al. Science Advances. 5(3), eaav0136 (2019), read-out: Inhibition (IC50) MAO-A; cited from earlier work.

The nature of data set [3]: H2O2 scavenging capacity test (Amplex red/HRP). Particulars: 10 min incubation with H2O2 at RT. On the procedure:
To determine the H2O2 scavenging capacity of the test compound, H2O2 concentration was measured using the modified Amplex red/horseradish peroxidase (HRP) detection method as described previously. Briefly, a H2O2 solution was incubated with the test compound for 10 min at room temperature (RT), and then the reaction solution containing 20 mM Amplex red and 200 U/mL HRP was added. The absorbance was measured at 570 nm using a microplate reader. The H2O2 scavenging capacities were compared to a blank negative control and to the known H2O2 scavenger epigallocatechin gallate (EGCG) as a positive control.

For data set [4], the system named is MPTP-induced PD mouse model. Kind of data set: MPTP mouse model: vertical grid test and coat hanger test. Particulars: MPTP mice; long-term (30-day) treatment, 10 mg/kg/day oral. The format is in vivo.
Procedure: Group allocation and outcome assessment, but not the conduct of experiments and data analysis, were performed in a blinded manner. Throughout the study, confounders were not controlled. An acclimation period of 7 days was allowed for animals to stabilize in a new environment before model induction. […] Treatment drugs were dissolved in 100 μL of water and total dose (in mg) was calculated according to individual body weight (in kg).
The MPTP model was established using the acute regimen of four intraperitoneal (i.p.) injections of MPTP-HCl (M0896, Sigma Aldrich, 2 mg/mL in saline, 20 mg/kg for one injection) at 2-h intervals.
Motor deficits of the MPTP-induced PD mouse model were assessed using the vertical grid test as described in the previous study [23]. Briefly, after 2 days of habituation to the testing apparatus, individual mice were gently placed 3 cm from the top, facing upward, and allowed to turn around and climb down. We also performed a coat hanger test as described [24–26]. Briefly, a mouse was gently hung on the middle of a coat hanger and allowed to ascend to the top. Performance was graded as follows: 0, falling off the hanger within 20 s; 1, moving to the side-bar of the hanger; 2, reaching the side-bar of the hanger; 3, climbing the side-bar of the hanger; 4, moving to the top of the hanger; 5, climbing and reaching the safe zone. The test was performed twice and each trial lasted a maximum of 3 min.
The test system of the next data set is 6-OHDA model rats. The experiment in a line: 6-OHDA rat model: stepping test, rotarod test, TH. Particulars: 6-OHDA rats; 10 mg/kg/day for 15 days starting 17 days post-6-OHDA.
In data set [5] the test system is MPTP-induced PD mouse model. Kind of data set: MPTP mouse model: TH (DAB) and Nissl staining of SNpc and striatum. The settings on record: MPTP mice; long-term treatment, 29 days before MPTP and one more day after, 10 mg/kg/day oral; 10 mg/kg/day.
Procedure: (§1) Group allocation and outcome assessment, but not the conduct of experiments and data analysis, were performed in a blinded manner. Throughout the study, confounders were not controlled. An acclimation period of 7 days was allowed for animals to stabilize in a new environment before model induction. […] Treatment drugs were dissolved in 100 μL of water and total dose (in mg) was calculated according to individual body weight (in kg). […] An experiment was halted if body weight decreased by 20% or more after MPTP or 6-hydroxydopamine (6-OHDA) treatment.
The MPTP model was established using the acute regimen of four intraperitoneal (i.p.) injections of MPTP-HCl (M0896, Sigma Aldrich, 2 mg/mL in saline, 20 mg/kg for one injection) at 2-h intervals. All MPTP use and safety precautions were strictly followed as described [18].
Coronal sections for striatum and SNpc were prepared at 30-μm thickness and immunostained using a DAB staining kit (TL-060-QHD, Thermo, MA, USA). […] After washing in PBS 3 times, sections were incubated in Primary Antibody Amplifier Quanto (TA-060-QPB, Thermo) for 5 min, washed again in PBS, incubated in HRP Polymer Quanto for 1 h, washed 4 times in PBS, and dipped for 30 s in a 1:10 mixture of DAB + chromogen and DAB + substrate buffer (K3468, Dako, Denmark). Finally, sections were washed, immersed in mounting medium, and dried.
Every 6th section including the SN was stained with anti-TH and the number of TH-positive neurons counted under low magnification (× 10) from the rostral tip of the SNpc to the caudal end of the substantia nigra pars reticulate (SNpr). […] The total number of neurons per section was estimated according to the optical fractionator formula. The total number of SNpc neurons in a hemisphere was then obtained by multiplying the number counted using Stereo Investigator 11 by the slice interval (six).
Other 30-μm-thick coronal sections from the SNpc were Nissl stained to assess viable cell number. Briefly, slices were stained with 0.1% cresyl violet solution for 3 min, rinsed with distilled water, and placed in a chamber filled with 70% ethanol for 1 min. […] A series of bright field images were obtained using an Olympus microscope. The slices were classified according to AP coordinates and Nissl-positive neurons counted using the counting tool of ImageJ (NIH, MD, USA).

Procedure for 6-OHDA model rats: as §1
Finally, the 6-OHDA model was prepared as previously described [21]. Under general anesthesia, all rats received unilateral injections of 8 μg 6-OHDA (Sigma Aldrich) in 4 μL saline/0.1% ascorbic acid into the right medial forebrain bundle (AP − 2.2 mm and L + 1.5 mm relative to the bregma, V − 8.0 mm from the dura) [19], with the tooth bar set at + 4.5 mm.
Motor deficits of 6-OHDA and A53T mutant α-synuclein model rats were assessed as previously described with slight modifications [27]. Briefly, both hind limbs and one forelimb were firmly fixed in the two hands of the experimenter, and the rat was lowered over a treadmill moving at rate of 18 cm/s such that the body remained stationary while the free forelimb was allowed to spontaneously touch the moving treadmill track for 10 s. All experimental sessions were video recorded to count the number of adjusting steps taken in the backward direction. The number of adjusting steps was averaged across four trials in each session.
In addition, impaired motor coordination of 6-OHDA model rats was examined using the rotarod test as previously described with slight modifications [28]. […] Before the first rotarod test, all rats were pre-trained until riding time reached 60 s at 10 rpm (B.S Technolab, Seoul, Korea). Each session consisted of two trials, and riding time was averaged to obtain pre-6-OHDA, 0d, 7d, and 15d results.

A word on the melting point: it is the temperature of the solid-liquid transition. By IC50 is commonly meant the concentration at which inhibition is half-maximal. For `C[C@H](NCc1ccc(-c2cccc(Cl)c2)cc1)C(N)=O` [Compound 18f], the melting point lay within 220 to 223 °C. Besides, in data set [1], the IC50 is 0.242 ± 0.008 µM and the “SI (selectivity index), IC50(MAO-A)/IC50(MAO-B)” value (“SI (selectivity index)” below) is greater than 413. Also, the IC50 in data set [2] was greater than 100 µM.
The compound `C[C@H](NCc1ccc(-c2ccc(F)cc2)cc1)C(N)=O` [Compound 18d] registered a melting point of 162 to 164 °C. Also, the “SI (selectivity index)” value in data set [1] was greater than 23. The IC50 in data set [2] is greater than 100 µM.
`C[C@H](NCc1ccc(-c2ccc(OC(F)(F)F)cc2)cc1)C(N)=O` [Compound 18l] displayed a melting point of 256 to 259 °C. Besides, in data set [1], the “SI (selectivity index)” value was > 1,020. Further, the IC50 in data set [2] is greater than 100 µM.
Turning to `C[C@H](NCc1ccc(-c2ccccc2F)cc1)C(N)=O` [Compound 18b], the melting point is 131 to 135 °C. The “SI (selectivity index)” value in data set [1] was greater than 12. Further, the IC50 in data set [2] is greater than 100 µM.
Regarding `C[C@H](NCc1ccc(-c2ccc(Cl)cc2)cc1)C(N)=O` [Compound 18g], the melting point was 220 to 223 °C. In data set [1], the IC50 is 0.182 ± 0.007 µM and the “SI (selectivity index)” value is reported as greater than 549. For the same compound, in data set [2], the IC50 was greater than 100 µM.
In the case of “epigallocatechin-3-gallate [EGCG, reference compound]”, in data set [3], the H2O2 scavenging effect result is on record as “dose-dependent effect of H2O2 scavenging”.
In turn, `C[C@H](NCc1ccc(-c2cccc(OC(F)(F)F)c2)cc1)C(N)=O` [Compound 18k] registered a melting point of 209 to 212 °C. Moreover, the “SI (selectivity index)” value in data set [1] is greater than 463. In data set [2], the concentration for half-maximal inhibition (IC50) was greater than 100 µM.
`C#CCN(C)[C@H](C)Cc1ccccc1` [selegiline, reference compound]: in data set [4], the “vertical grid test: time to turn” value is “reduced” and the “vertical grid test: total time” value is on record as “reduced”. Moreover, the “stepping test: stepping behavior deficit of the contralateral forepaw” value in the data set on 6-OHDA model rats was “did not improve”. Also, the “loss of TH-positive cells in the SNpc” value in data set [5] was “non-significant increasing tendency”.
As for `C[C@H](NCc1ccc(-c2ccccc2)cc1)C(N)=O` [Compound 18a], the melting point was in the range of 252 to 256 °C. Besides, in data set [1], the concentration for half-maximal inhibition (IC50) was greater than 10 µM. Moreover, the IC50 in data set [2] is greater than 100 µM.
